According to a melting point compilation (Tetko et al.; mined from patent text by program, amines drawn as free bases though some values may be those of a salt):

melting point [°C] | Compound
231 to 232 | COc1cc(OCc2ccccn2)ccc1/C=C/c1cc(/C=C/c2cc3ccccc3s2)n[nH]1
188 to 190 | Cc1ccn(-c2ccc(C(=O)N3Cc4cccnc4N(C)c4ccccc43)c(C(F)(F)F)c2)n1
127 to 129 | COc1cc(=O)n(-c2cccc(C(F)(F)F)c2)nc1C(=O)N(C)OC
201 to 203 | COc1cnc(OC)n2nc(NS(=O)(=O)c3c(F)cccc3C(F)(F)F)nc12
118 to 120 | C=C(C)Cc1cc2c(cc1O)CC(=O)N2CC
88 to 89 | CC(C)Oc1c(CO)cnc2c(Cl)cccc12
125 to 129 | SCC1=NC2CCCCC2N1 (stereo not drawn)
244 to 246 | CCCc1cc(=O)oc2c(C(=O)CC)c(O)cc(O)c12
> 280 | CNc1c(F)cc2c(=O)c(C(=O)O)cn(-c3cc(N)c(F)cc3Br)c2c1Cl
218 | Cc1ccc2nc3ccc(=O)c(Cl)c-3sc2c1
135 to 137 | CC1=C(S(=O)(=O)c2ccc(C)cc2)C(c2ccc(C)cc2)C(C#N)=C(CC(C)C)N1 (stereo not drawn)
113 to 114 | CCON(Cc1ccc(F)cc1)C(=O)C1=C(O)C(=O)N(C)C1
51 to 53 | CCCCCCCCCCCCCCCCOC(=O)c1cccc([N+](=O)[O-])c1
85 to 86 | COc1ccccc1C(O)(c1ccc(C(C)C)cc1)C(C)C (stereo not drawn)
104 to 106 | Brc1ccc(OCc2ccc3ccccc3c2)cc1
142 to 145 | CS(=O)(=O)c1ccc(-c2cnn(-c3cccc(Cl)c3)c(=O)c2CCc2ccccc2)cc1
273 to 275 | O=C1CCC2(CCC(=O)c3cc([N+](=O)[O-])ccc32)C(=O)N1 (stereo not drawn)
143 to 145 | CC(=O)c1ccc2c(c1)Sc1cc(Br)ccc1O2
110 | CCOC(=O)CCCCCCC1NC(=O)NC1=O (stereo not drawn)
100 to 102 | CCN(CC)C(=O)C(C)(C)Oc1ccc(-c2ccc(N3CCCCC3)cc2)cc1
120 to 122 | CCOC(=O)Cc1c(-c2ccc(Cl)cc2)nn(-c2ccccc2)c1-c1ccc(Cl)cc1
115 to 117 | OCc1cc(Cl)ccc1I
88 to 90 | NCC(O)c1cc(C(N)=O)c2[nH]ccc2c1 (stereo not drawn)
219 to 221 | c1n[nH]c2c1CCc1[nH]ncc1-2
129 to 131 | O=C1N=C(N2CCOCC2)SC1Cc1cccc(-c2ccc(O)c(C34CC5CC(CC(C5)C3)C4)c2)c1 (stereo not drawn)

melting point [°C] | Compound
163 to 164 | C#CCOc1c(Cl)cc(Cl)cc1C(=O)O
92 to 93 | CC(C)Oc1ccc(Cc2ccc(N)cc2)cc1
127 to 130 | CCC(C)(C)OC(=O)NC(C)(Cc1c[nH]c2ccccc12)C(=O)NCCCCc1ccccc1 (stereo not drawn)
122 to 124 | CCOc1cc([C@@H](CS(C)(=O)=O)N2Cc3cccc(NCC(C)C)c3C2=O)ccc1OC
71 to 73 | CCOC(=O)CN(C(=O)C(F)(F)F)c1ccc(Cl)cc1C#N
106 to 108 | O=C1CC(C(F)(F)F)CC(=O)N1c1cc(OCC=C(Cl)Cl)c(Cl)cc1F
53 to 55 | CCCCCCCCCCCCN1CCN(CCCCCCNc2cc(OC)cc3c(C)ccnc23)CC1
154 to 155 | COc1ccc(S(=O)(=O)Nc2cccnc2Nc2ccccc2O)cc1
154 to 155 | COc1ccc(-c2nc(CSCCO)nc3cc(OC)c(OC)cc23)cc1OC
136 | COc1cc(Nc2nccc(NC3CCN(Cc4ccccc4)CC3)n2)cc(OC)c1OC
180 to 182 | O=C1CCC(N2C(=O)c3ccc(CNC(=O)c4ccco4)cc3C2=O)C(=O)N1 (stereo not drawn)
188 to 190 | CCOC(=O)c1cccc2[nH]c(=O)oc(=O)c12
42 to 45 | O=C(O)CC1(CS)CC1
126 to 128 | CCOC(=O)C1=C(C)NC(=S)N(C(=O)OCC)C1c1ccccc1Cl (stereo not drawn)
107 to 109 | COC(=O)c1cc(C)sc1NC(=O)Cc1ccccc1
210 to 225 | Nc1nc(O)c2c(n1)NCC(CCC1CCC(N[C@@H](CCC(=O)O)C(=O)O)CC1)C2 (stereo partly drawn)
238 to 239 | CCCC(=O)NCc1c(-c2ccc(C)cc2)nc2ccc3ccccc3n12
155 to 159 | CCCCOc1c(CNC(=O)OC(C)(C)C)n(CC(C)C)c(=O)c2ccc(-c3ccccc3)cc12
76 | CC(=O)c1ccc(CCC(=O)O)c(C(=O)O)c1
74 to 75 | CCOC(=O)C1CCCCN1C(=O)/C=C/c1ccc(Sc2ccc3c(c2)OCCO3)c([N+](=O)[O-])c1 (stereo not drawn)
205 | CS(=O)(=O)C(=C1CN(C(c2ccccc2)c2ccccc2)C1)c1cccc(Cl)c1
110 to 111 | CCCc1c(OCCOCCOCCOc2ccc3ccc(OCC(=O)O)cc3c2C(C)=O)ccc(C(C)=O)c1O
172 to 175 | N#Cc1ccc(CN(O)Cc2ccc(C#N)cc2)cc1
130 to 131 | CC(C)NCC(O)COc1ncc(Br)nc1N(C)C (stereo not drawn)
> 300 | Cc1ccc(-n2c(=O)c(O)nc3cccnc32)cc1

melting point [°C] | Compound
75 to 77 | Cc1nc(C)c(C(=O)OCC2CCCO2)c(-c2cccc([N+](=O)[O-])c2)c1C(=O)OCC1CCCO1 (stereo not drawn)
235 | O=c1[nH]c2ccc(N3CCN(Cc4ccccc4)CC3)cc2c(=O)o1
312 to 314 | Cc1nc2c([nH]1)C(=O)N1CCN=C1N2Cc1ccc(Cl)cc1
117 | CCc1ccc(O)c(C(=NO)c2ccc(Cl)cc2)c1
99 | CCOC(=O)N=C(N)c1ccc(OCc2cccc(COc3ccc(C(C)(C)c4ccccc4)cc3)c2)cc1
167 | COCCCN1CCC(CNC(=O)c2cc(Cl)c(N)n3cc(C)nc23)CC1
100 to 112 | CC1(C)Oc2cccc(S(N)(=O)=O)c2O1
257 | COC(=O)Nc1ccc(CC(=O)Nc2cccc3c2C(=O)c2c-3n[nH]c2-c2ccc(OC)cc2)cc1
62 to 65 | CCOc1ccccc1OS(N)(=O)=O
176 | CC(C)(S)[C@@H](NC(=O)c1ccc(Br)cc1)C(=O)O
180 to 182 | O=C(O)c1cc(S(=O)(=O)N2CC=CCC2)ccc1Cl
54 to 57 | CSCC(=O)N(C)C(C)=Nc1cn(-c2cccnc2)nc1C
195 to 197 | CCCCc1[nH]c(=O)c(C#N)cc1C(C)=O
128 to 131 | CCCCCCCc1ccc(C(=O)Cc2ccccc2C(=O)O)cc1
148 | O=[N+]([O-])c1cccc2c(CO)ccnc12
183 to 184 | Cc1c(NC(=O)CC(C)(C)C)c2c(c3c1C(c1ccc(C(C)C)cc1)CO3)CCCC2 (stereo not drawn)
118 to 120 | CCC(=NO)C(C)(C)NCC(C)(C)CN
156 to 157 | N#CC(N)=C(C#N)N=C1c2ccccc2-c2ccccc21
92 to 94 | CN1c2ccncc2NC(CCc2ccccc2)c2cccn21 (stereo not drawn)
195 to 197 | O=S(=O)(Cl)c1ccc2c(S(=O)(=O)Cl)cc(S(=O)(=O)Cl)cc2c1
169 to 171 | NC(=O)c1cccc(NS(=O)(=O)c2cc(S(=O)(=O)Nc3cccc(C(N)=O)c3)c3cc(O)ccc3c2)c1
147 to 148 | CCCNC(=O)C1(CCCCc2ccc(N3Cc4ccccc4C3=O)cc2)c2ccccc2-c2ccccc21
191 to 193 | Cn1c(-c2ccc(F)cc2)cc(=O)c(C(=O)O)c1-c1ccc(F)cc1
98 to 101 | COc1ccc(C(=O)N2CCN(c3ccc(N)c(CCC(=O)O)c3)CC2)cc1OC
226 to 228 | CCOC(=O)/C=C/c1cnc(-c2ccc(O)c(C34CC5CC(CC(C5)C3)C4)c2)nc1

melting point [°C] | Compound
252 to 255 | Cc1cc(CN2CCN(c3ccc(C(=O)NC4CC4)cc3Cl)CC2)cc2c1OC(C)C(=O)N2 (stereo not drawn)
> 250 | CC(=O)C1=C(C)NC2=C(C(=O)CCC2)C1c1cccc([N+](=O)[O-])c1 (stereo not drawn)
92 to 93 | Cc1ccc(C2NCCS2)cc1 (stereo not drawn)
125 to 126 | Oc1cccc(/C=C/c2ccccc2)c1
266 to 267 | CS(=O)c1ccc(-c2coc3ccc(-c4nnc(N)o4)cc23)cc1Cl (stereo not drawn)
202 to 203 | CNC(=O)c1cc(C(=O)OC)cc(C(=O)NC)n1
146 to 149 | Cc1noc(NS(=O)(=O)c2ccc(Br)cc2)c1Br
74 to 75 | CCOC1(OCC)CCC(C#N)(CC#N)CC1
59 to 61 | COC(=O)c1c(OCc2ccccc2)ccc2c1CCCC2
75 to 77 | CCOC(=O)C(Cc1ccc(OCCN2CCC(C)(C)c3cc(C(=O)c4ccccc4)ccc32)cc1)Nc1ccccc1C(=O)c1ccccc1 (stereo not drawn)
167 to 169 | c1ccc2c(c1)NCc1cscc1N2
150 | CC(C)OP(=O)(/C=C/CCn1cnc2c(Cl)nc(N)nc21)OC(C)C
139 to 141 | CC1CC(=O)c2cc([N+](=O)[O-])c(F)cc2O1 (stereo not drawn)
89 to 91 | CN(C(=O)COc1ccccc1)c1ccc(OC23CC4CC(CC(C4)C2)C3)cc1
157 to 161 | Cn1c(=O)cnn(-c2ccc(Cl)c(C(=O)NCCc3ccccc3Cl)c2)c1=O
142 to 143 | Cc1cc(-c2cc(COS(C)(=O)=O)c(=O)n(Cc3ccccc3Cl)n2)ccc1F
120 to 121 | CC(C)c1nccc2c(CO)cccc12
79 to 81 | COc1ccc(/C=C/C(=O)c2ccccc2C(=O)O)cc1-c1cccs1
140 to 146 | CC(=O)NC[C@H]1CN(c2ccc(N3CCNC(=O)CC3)c(F)c2)C(=O)O1
113 to 115 | Clc1ccc(-c2ccc(Cl)nc2)cc1
178 to 180 | COC(=O)C12C3C4(C(=O)OC)C1C1(C(=O)OC)C2C3(C(=O)OC)C41Cl (stereo not drawn)
255 to 260 | c1cn(Cc2ccc3c(c2)Cc2c(-c4ccsc4)n[nH]c2-3)cn1
95 to 96 | CCC1(CCCCCBr)C(=O)Nc2cc(F)ccc21 (stereo not drawn)

Compound | melting point [°C]
CNC(Cc1cc(Br)ccc1N)c1ccsc1C (stereo not drawn) | 72.5 to 74
NC1(CF)CCCNC1=O (stereo not drawn) | 132
CC1(C)NC(=O)N(c2ccc([N+](=O)[O-])c(Cl)c2)C1=O | 144 to 145
O=C1c2ccccc2C(=O)N1Cc1noc(-c2ncn3c2[C@@H]2CCN2C(=O)c2c-3cccc2C(F)(F)F)n1 | 243 to 245
O=C1N(Cc2ccc(Cl)cc2)c2ccccc2C1(O)c1ccoc1 (stereo not drawn) | 128 to 130
